Counter-ions that a name gives are not always drawn. Like-named read-outs stand apart in the source and are kept apart here.
Legend:
[1] = test system: multiple myeloma patients (NRAS / KRAS status of tumor); assay: Pharmacogenomic analysis: pre-treatment NRAS/KRAS mutation status versus response, time-to-progression and overall survival; assay type: in vivo, human
Excerpt: Patient samples and response criteria from patients participating in these studies, as well as the following additional studies described below were sought for use in pharmacogenomic analyses to identify markers associated with patient survival. […] The bone marrow aspirates were collected prior to the patient's treatment in the studies. […] Dexamethasone is a synthetic adrenocorticosteroid, CAS Registry No. […], administered as tablets (DECADRON® Merck & Co., Inc.). The trials are described in the following paragraphs.
Upon collection of patient bone marrow aspirate, the myeloma cells were enriched via rapid negative selection. The enrichment procedure employs a cocktail of cell-type specific antibodies coupled with an antibody that binds red blood cells RosetteSep (Stem Cell Technologies). The antibody cocktail has antibodies with the following specificity: CD14 (monocytes), CD2 (T and NK cells), CD33 (myeloid progenitors and monocytes), CD41 (platelets and megakaryocytes), CD45RA (naïve B and T cells) and CD66b (granulocytes). The antibodies cross-linked the non-myeloma cell types to the red blood cells in the samples. The bound cell types were removed using a modified ficoll density gradient. Myeloma cells were then collected and frozen. In the international studies, the first two samples from each site were collected and subjected to RNA isolation so that feedback on quantity and quality could be provided; ultimately Phase 2 and 3 trials provided a similar percentage of informative samples. Control bone marrow plasma cell samples were obtained from normal donors (AllCells, Berkeley, Calif.).
Flow through from the RNEASY® column was clarified by centrifugation, then concentrated about 10-fold with centrifugal ultrafilters (MICROCON® centrifugal filter device, YM-30 membrane (30 kDa limit), Millipore Corp. Billerica, Mass.). Impurities were removed using the Qiagen QIAMP® DNA Micro Kit. DNA from the sample was amplified using the Qiagen REPLI-G® WGA kit. Mutation status of DNA from 133 bone marrow tumor biopsies was determined by testing a panel of cancer genes and known tumor suppressors using the Sequenom (San Diego, Calif.) mass spectrometry genotype analysis system.
Rather, the platform interrogated tumor DNA only for specific sequences that were previously implicated in cancer (i.e. ‘hotspot’ mutations), relying largely on the prior knowledge that these are highly relevant in human cancer. The panel of mutations evaluated consisted of the ONCOCARTA™ version 1.0 and custom assays designed in collaboration with Sequenom and Millennium to expand the list of mutations surveyed to 514 known mutations in 41 oncogenes and tumor suppressor genes. Table 5 lists genes with mutations included in the panel and the number in parentheses 0 indicates the approximate number of mutations targeted in assays of the genes.
The custom assays were designed using TYPEPLEX® chemistry with single-base extension which determines the expected mass weight of the extend products to ensure separation between all potential peaks found within a multiplexed reaction. 15 nl of amplified and extended product is spotted on a 384 SpectroCHIP II using a Nanodispenser. A 3-point calibrant is added to every chip to ensure proper performance of the Sequenom Maldi-tof compact mass spectrometer. The SpectroCHIP II is placed in the Sequenom MALDI-TOF compact mass spectrometer. The mass spectrometer is set to fire a maximum of 9 acquisitions for each spot on the 384 well SpectroCHIP. TypePLEX Gold kit SpectroCHIP II is used following manufacturers recommended protocols.
Analysis is performed using Sequenom analysis software, MassARRAY® Typer Analyzer v4 with a mutation call filter of ≧8%, Signal:Noise>5 (background), followed by a manual inspections for false positives due to Impurities (ie Salts). Default threshold for positive mutant call is a minimal 10% mutant allele frequency, though signal as low as 3% may be detected. […]

[2] = test system: relapsed and refractory myeloma; settings: cited from earlier work
[3] = test system: multiple myeloma patients (t(4;14) / NRAS status of tumor); assay: t(4;14) and NRAS status versus response in patients with tumor subtype data; assay type: in vivo, human
Excerpt: Table 12 details the t(4;14) and NRAS status of the current dataset for patients both with tumor subtype data (Mulligan et al. (2007) Blood 109:3177-3188) and who were response-evaluable (n=40).

[4] = test system: relapsed multiple myeloma; settings: cited from earlier work
[5] = test system: relapsed or refractory multiple myeloma; assay: APEX phase 3 trial (039), bortezomib versus high-dose dexamethasone, EBMT response criteria; assay type: in vivo, human; settings: for Complete response / Complete response achieved, number of patients / Median duration of response / One-year survival / complete response plus near-complete response / response rate (complete plus partial response (CR+PR)) / Median time to response: -039 trial; for Median time to response: both groups
Experimental: Patients who received dexamethasone were treated for a maximum of 280 days by the following method: received up to four 5-week treatment cycles, followed by up to five 4-week treatment cycles. Within each 5-week treatment cycle, the patient received dexamethasone 40 mg/day PO, once daily on Days 1 to 4, 9 to 12, and 17 to 20 of a 35-day cycle. Within each 4-week treatment cycle, the patient received dexamethasone 40 mg/day PO once daily on Days 1 to 4 of a 28 day cycle.
The following section presents more detailed information on the -039 trial. During the study, disease response was assessed according to the European Group for Blood and Marrow Transplant (EBMT) criteria as presented in Table 3.
Response and date of disease progression was determined by computer algorithm that integrated data from a central laboratory and case report forms from each clinical site, according to the Blade criteria (Table 3). […] See Richardson et al., supra.
Disease progression was determined by Blade criteria as described in Table 3 and above. […] The date of progression was determined by computer algorithm. P-value from log-rank test adjusted by actual randomization factors. See Richardson et al., supra.

[6] = test system: t(4;14) translocation in MM; settings: bortezomib alone or in combination; cited from earlier work
[7] = test system: hematological and solid tumor xenograft models; settings: range of hematological and solid tumor xenograft models; cited from earlier work
[8] = in this set of patients (pharmacogenomic set)
[9] = totals (all samples of the 2-by-2 table)
[10] = NRAS mutant and not t(4; 14), N=32
[11] = NRAS wild type and not t(4; 14), N=32
[12] = bortezomib n = 315, dexamethasone n = 312
[13] = bortezomib versus dexamethasone

Compound: CC(C)C[C@H](NC(=O)[C@H](Cc1ccccc1)NC(=O)c1cnccn1)B(O)O [bortezomib, N(pyrazine)carbonyl-L-phenylalanine-L-leucine boronic acid]
- Non-response, number of patient samples ([1]; KRAS mutant): 8
- Response, number of patient samples ([1]; KRAS mutant): 9
- Non-response, number of patient samples ([1]; KRAS wild type): 34
- Response, number of patient samples ([1]; KRAS wild type): 23
- Non-response, number of patient samples ([1]; NRAS mutant): 14
- Response, number of patient samples ([1]; NRAS mutant): 1
- Non-response, number of patient samples ([1]; NRAS wild type): 28
- Response, number of patient samples ([1]; NRAS wild type): 31
- CR+PR rate [1, 8]: 32%
- overall response rate [1, 8]: 42.3%
- time-to-progression after bortezomib treatment ([1]; patients whose pre-treatment bone marrow tumor samples had NRAS mutations): significantly lower
- Non-response, number of patient samples [1, 9]: 42
- Response, number of patient samples [1, 9]: 32
- CR+PR+MR, number of patients ([2]; Study -025, of 193 patients): 67 patients
- CR+PR, number of patients ([2]; Study -025, of 193 patients): 53 patients
- CR+PR rate to bortezomib alone ([2]; Study -025): 27%
- overall response rate (CR+PR+minimal response (MR)) to bortezomib alone ([2]; Study -025): 35%
- Non-response, number of patients [3, 10]: 10
- Response, number of patients [3, 10]: 0
- Non-response, number of patients ([3]; NRAS mutant, n = 40 cohort): 10
- Response, number of patients ([3]; NRAS mutant, n = 40 cohort): 1
- Non-response, number of patients [3, 11]: 11
- Response, number of patients [3, 11]: 11
- Non-response, number of patients ([3]; NRAS wild type, n = 40 cohort): 13
- Response, number of patients ([3]; NRAS wild type, n = 40 cohort): 16
- Non-response, number of patients ([3]; Other subtypes, n = 40 cohort): 21
- Response, number of patients ([3]; Other subtypes, n = 40 cohort): 11
- Non-response, number of patients ([3]; t(4; 14), n = 40 cohort): 2
- Response, number of patients ([3]; t(4; 14), n = 40 cohort): 6
- complete response (CR)+partial response (PR) rate ([4]; bortezomib 1.0 mg/m^2, Study -024): 30%
- complete response (CR)+partial response (PR) rate ([4]; bortezomib 1.3 mg/m^2, Study -024): 38%
- Complete response [5]: 6%
- Complete response achieved, number of patients [5]: 20 patients
- Median duration of response [5]: 8 months
- One-year survival [5]: 80%
- complete response plus near-complete response [5]: 13%
- response rate (complete plus partial response (CR+PR)) [5]: 38%
- Median time to response [5]: 43 days
- decrease in risk of death ([5]; bortezomib group versus dexamethasone, first year after enrollment): 41%
- Best Confirmed Response: CR + PR + MR [5, 12]: 146 (46) n (%)
- Best Confirmed Response: Complete Response [5, 12]: 20 (6) n (%)
- Best Confirmed Response: Minor Response [5, 12]: 25 (8) n (%)
- Best Confirmed Response: Near CR: IF+ [5, 12]: 21 (7) n (%)
- Best Confirmed Response: No Change [5, 12]: 137 (43) n (%)
- Best Confirmed Response: Not Evaluable [5, 12]: 10 (3) n (%)
- Best Confirmed Response: Overall Response Rate (CR + PR) [5, 12]: 121 (38) n (%)
- Best Confirmed Response: Progressive Disease [5, 12]: 22 (7) n (%)
- Best Confirmed Response: SWOG Remission [5, 12]: 46 (15) n (%)
- Difference (95% CI) in CR + PR + MR [5, 13]: 0.12 (0.04, 0.19)
- Difference (95% CI) in Complete Response [5, 13]: 0.06 (0.03, 0.09)
- Difference (95% CI) in Minor Response [5, 13]: −0.09 (−0.14, −0.04)
- Difference (95% CI) in Near CR: IF+ [5, 13]: 0.06 (0.03, 0.09)
- Difference (95% CI) in No Change [5, 13]: −0.04 (−0.12, 0.04)
- Difference (95% CI) in Not Evaluable [5, 13]: −0.01 (−0.04, 0.02)
- Difference (95% CI) in Overall Response Rate (CR + PR) [5, 13]: 0.20 (0.14, 0.27)
- Difference (95% CI) in Partial Response [5, 13]: 0.15 (0.08, 0.21)
- Difference (95% CI) in Progressive Disease [5, 13]: −0.06 (−0.11, −0.01)
- Difference (95% CI) in SWOG Remission [5, 13]: 0.09 (0.05, 0.14)
- effect on poor prognosis associated with the t(4;14) translocation [6]: at least partially overcomes the poor prognosis

Compound: C[C@@H]1C[C@H]2[C@@H]3CCC4=CC(=O)C=C[C@]4(C)[C@@]3(F)[C@@H](O)C[C@]2(C)[C@@]1(O)C(=O)CO [dexamethasone]
- Non-response, number of patient samples ([1]; KRAS mutant): 6
- Response, number of patient samples ([1]; KRAS mutant): 3
- Non-response, number of patient samples ([1]; KRAS wild type): 14
- Response, number of patient samples ([1]; KRAS wild type): 8
- Non-response, number of patient samples ([1]; NRAS mutant): 3
- Response, number of patient samples ([1]; NRAS mutant): 3
- Non-response, number of patient samples ([1]; NRAS wild type): 17
- Response, number of patient samples ([1]; NRAS wild type): 8
- Non-response, number of patient samples [1, 9]: 20
- Response, number of patient samples [1, 9]: 11
- Complete response [5]: < 1%
- Complete response achieved, number of patients [5]: 2 patients
- Median duration of response [5]: 5.6 months
- One-year survival [5]: 66%
- complete response plus near-complete response [5]: 2%
- response rate (complete plus partial response (CR+PR)) [5]: 18%
- Median time to response [5]: 43 days
- Best Confirmed Response: CR + PR + MR [5, 12]: 108 (35) n (%)
- Best Confirmed Response: Complete Response [5, 12]: 2 (<1) n (%)
- Best Confirmed Response: Minor Response [5, 12]: 52 (17) n (%)
- Best Confirmed Response: Near CR: IF+ [5, 12]: 3 (<1) n (%)
- Best Confirmed Response: No Change [5, 12]: 149 (48) n (%)
- Best Confirmed Response: Not Evaluable [5, 12]: 14 (4) n (%)
- Best Confirmed Response: Overall Response Rate (CR + PR) [5, 12]: 56 (18) n (%)
- Best Confirmed Response: Partial Response [5, 12]: 54 (17) n (%)
- Best Confirmed Response: Progressive Disease [5, 12]: 41 (13) n (%)
- Best Confirmed Response: SWOG Remission [5, 12]: 17 (5) n (%)

Compound: CC(C)C[C@H](NC(=O)CNC(=O)c1cc(Cl)ccc1Cl)B1OC(=O)C(CC(=O)O)(CC(=O)O)O1 [Ixazomib citrate, 2,2′-{2-[(1R)-1-({[(2,5dichlorobenzoyl)amino]acetyl}amino)-3-methylbutyl]-5-oxo-1,3,2-dioxaborolane-4,4-diyl}diacetic acid]
- anti-tumor activity [7]: has anti-tumor activity

Reference: US20150184246A1, “BIOMARKERS OF RESPONSE TO PROTEASOME INHIBITORS” (Millennium Pharmaceuticals, Inc., priority 2011, published 2015)
